From patent publication US8114859B2, “2-methylene-(20S,25S)-19,27-dinor-(22E)-vitamin D analogs” (Wisconsin Alumni Research Foundation, priority 2006, dated 2012) come the findings set out here.

Where two headings read alike, the source gives them in different places.

Test [1] deals with HL-60 cells. Nature of the test: HL-60 differentiation (nitro blue tetrazolium reduction assay). Type of test: cell-based, human. Particulars: FIG. 2; for EC50: read-out: EC50, HL-60 cell differentiation. As to the method: The study drugs were dissolved in ethanol and the concentrations determined using UV spectrophotometry. Serial dilutions were prepared so that a range of drug concentrations could be tested without changing the final concentration of ethanol (≦0.2%) present in the cell cultures.
Human promyelocytic leukemia (HL60) cells were grown in RPMI-1640 medium containing 10% fetal bovine serum. The cells were incubated at 37° C. in the presence of 5% CO2.
HL60 cells were plated at 1.2×10^5 cells/ml. Eighteen hours after plating, cells in duplicate were treated with drug. Four days later, the cells were harvested and a nitro blue tetrazolium reduction assay was performed (Collins et al., 1979; J. Exp. Med. 149:969-974). The percentage of differentiated cells was determined by counting a total of 200 cells and recording the number that contained intracellular black-blue formazan deposits. Verification of differentiation to monocytic cells was determined by measuring phagocytic activity (data not shown).

The nature of test [2]: Intestinal calcium transport, everted gut sac method, in vitamin D-deficient rats. Type of test: in vivo, rat. Particulars: FIG. 5; for intestinal calcium transport: everted gut sac. How it is done: (§1) Male, weanling Sprague-Dawley rats were placed on Diet 11 (0.47% Ca) diet+AEK for one week followed by Diet 11 (0.02% Ca)+AEK for 3 weeks. The rats were then switched to a diet containing 0.47% Ca for one week followed by two weeks on a diet containing 0.02% Ca. Dose administration began during the last week on 0.02% calcium diet. Four consecutive ip doses were given approximately 24 hours apart. Twenty-four hours after the last dose, blood was collected from the severed neck and the concentration of serum calcium determined as a measure of bone calcium mobilization. The first 10 cm of the intestine was also collected for intestinal calcium transport analysis using the everted gut sac method.

In test [3] the test system is 24-hydroxylase (24Ohase) gene promoter. Nature of the test: In vitro transcription assay, luciferase reporter in ROS 17/2.8 (bone) cells. Format: cell-based. The conditions noted are these: FIG. 3; for EC50: ROS 17/2.8 cells, read-out: EC50, transcriptional activity in bone cells. How it is done:
Transcription activity was measured in ROS 17/2.8 (bone) cells that were stably transfected with a 24-hydroxylase (24Ohase) gene promoter upstream of a luciferase reporter gene (Arbour et al., 1998). Cells were given a range of doses. Sixteen hours after dosing the cells were harvested and luciferase activities were measured using a luminometer.
RLU=Relative Luciferase Units.

Test [4] can be described thus: Bone calcium mobilization (serum calcium) in vitamin D-deficient rats. Format: in vivo, rat. Particulars: FIG. 4; for bone calcium mobilization: ip. How it is done: as §1
The target in test [5] is T1, full-length recombinant rat vitamin D receptor (Rattus norvegicus, UniProt P13053).
T1 construct: Full-length recombinant rat receptor was expressed in E. coli BL21 (DE3) Codon Plus RIL cells; His tag (C); made in house; host or cells: E. coli BL21 (DE3) Codon Plus RIL
T1 sequence (P13053 1-423): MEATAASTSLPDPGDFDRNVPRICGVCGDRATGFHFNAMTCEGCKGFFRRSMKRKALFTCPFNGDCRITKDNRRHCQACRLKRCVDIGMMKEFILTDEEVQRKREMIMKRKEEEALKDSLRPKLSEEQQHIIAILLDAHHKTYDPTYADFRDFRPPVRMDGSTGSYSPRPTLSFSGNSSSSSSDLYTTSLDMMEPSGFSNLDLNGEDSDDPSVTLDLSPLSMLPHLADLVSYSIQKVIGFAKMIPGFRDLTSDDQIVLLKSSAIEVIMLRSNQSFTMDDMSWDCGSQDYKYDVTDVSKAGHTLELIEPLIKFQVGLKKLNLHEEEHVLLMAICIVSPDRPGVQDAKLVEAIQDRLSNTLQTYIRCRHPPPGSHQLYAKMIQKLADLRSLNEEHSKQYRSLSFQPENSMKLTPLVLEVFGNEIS
Nature of the test: Vitamin D receptor binding, competition with [3H]-1,25(OH)2D3. Particulars: FIG. 1. As to the method: Full-length recombinant rat receptor was expressed in E. coli BL21 (DE3) Codon Plus RIL cells and purified to homogeneity using two different column chromatography systems. The first system was a nickel affinity resin that utilizes the C-terminal histidine tag on this protein. The protein that was eluted from this resin was further purified using ion exchange chromatography (S-Sepharose Fast Flow). Aliquots of the purified protein were quick frozen in liquid nitrogen and stored at −80° C. until use. For use in binding assays, the protein was diluted in TEDK50 (50 mM Tris, 1.5 mM EDTA, pH7.4, 5 mM DTT, 150 mM KCl) with 0.1% Chaps detergent. The receptor protein and ligand concentration were optimized such that no more than 20% of the added radiolabeled ligand was bound to the receptor.
Radiolabeled and unlabeled ligands were added to 100 mcl of the diluted protein at a final ethanol concentration of ≦10%, mixed and incubated overnight on ice to reach binding equilibrium. The following day, 100 mcl of hydroxylapatite slurry (50%) was added to each tube and mixed at 10-minute intervals for 30 minutes. The hydroxylapaptite was collected by centrifugation and then washed three times with Tris-EDTA buffer (50 mM Tris, 1.5 mM EDTA, pH 7.4) containing 0.5% Titron X-100. […] Total binding was determined from the tubes containing only radiolabeled ligand.

For orientation: EC50 means the concentration giving half of the maximal effect. For the compound `C=C1/C(=C\C=C2/CCC[C@]3(C)[C@@H]([C@H](C)CCCC(C)(C)O)CC[C@@H]23)C[C@@H](O)C[C@@H]1O` [1,25(OH)2D3, 1α,25-dihydroxyvitamin D3, reference compound], the EC50 in test [1] is 2 nM; in test [3] it was 0.2 nM. Besides, the intestinal calcium transport entry in test [2] (260 pmol/day) is “promotes a significant increase”. Also, in test [4] (all dosages, rats on low calcium diet (0.02%)), the serum calcium levels entry is reported as “increased serum calcium levels at all dosages”.

As usually defined, the Ki is a dissociation constant, usually derived from enzyme kinetics or from competition with a known ligand. For `C=C1[C@H](O)CC(=C/C=C2\CCC[C@]3(C)[C@@H]([C@@H](C)/C=C/C[C@H](C)O)CC[C@@H]23)C[C@H]1O` [SS-22, 2-methylene-(20S,25S)-19,27-dinor-(22E)-1α,25-dihydroxyvitamin D3], the EC50 in test [1] (Homo sapiens, HL-60) stood at 1 nM; in test [3], 0.1 nM. Also, the “potency on HL-60 cell differentiation compared to 1,25(OH)2D3” value in test [1] (in words) is given as “as potent as 1,25(OH)2D3”. The intestinal calcium transport result in test [2] (260 pmol/day) is reported as “promotes intestinal calcium transport only slightly”; in test [2] (7020 pmol/day), “significant intestinal calcium transport activity was recorded”. In addition, in test [2] (in words, overall), the “intestinal calcium transport activity compared to 1,25(OH)2D3” value is recorded as “very little activity”. In test [5] (full-length recombinant rat VDR), the inhibition constant (Ki) was 0.3 nM. Also, the “binding to the receptor compared to 1,25-(OH)2D3” value in test [5] (in words) was “bound equally to the receptor”. Besides, the “transcriptional activity in bone cells compared to 1α,25-dihydroxyvitamin D3” value in test [3] (in words) is listed as “about the same transcriptional activity”. The bone calcium mobilization result is given as “did not result in mobilization of bone calcium” in test [4] (260 pmol/day for 4 consecutive days, rats on low calcium diet (0.02%)) and “without any substantial effect” in test [4] (7020 pmol/day, rats on low calcium diet (0.02%)). For the same compound, in test [4] (in words, overall), the “bone calcium mobilization activity compared to 1,25(OH)2D3” value is recorded as “very little bone calcium mobilization activity”.
